Measurements: ChEMBL document CHEMBL3739306, “Enantiomeric resolution of [(2,2-diphenyl-1,3-dioxolan-4-yl)methyl](2-phenoxyethyl)amine, a potent 1and 5-HT1Areceptor ligand: an in vitro and computational study” (Medchemcomm, 2015)

Experiments:
[1] = target: T1, Alpha-1D adrenergic receptor (Homo sapiens, UniProt P25100); experiment: Displacement of [3H]prazosin from human recombinant alpha1D adrenoceptor expressed in CHO cell membrane after 30 mins by liquid scintillation counting; format: cell membranes
T1 sequence (P25100 whole entry): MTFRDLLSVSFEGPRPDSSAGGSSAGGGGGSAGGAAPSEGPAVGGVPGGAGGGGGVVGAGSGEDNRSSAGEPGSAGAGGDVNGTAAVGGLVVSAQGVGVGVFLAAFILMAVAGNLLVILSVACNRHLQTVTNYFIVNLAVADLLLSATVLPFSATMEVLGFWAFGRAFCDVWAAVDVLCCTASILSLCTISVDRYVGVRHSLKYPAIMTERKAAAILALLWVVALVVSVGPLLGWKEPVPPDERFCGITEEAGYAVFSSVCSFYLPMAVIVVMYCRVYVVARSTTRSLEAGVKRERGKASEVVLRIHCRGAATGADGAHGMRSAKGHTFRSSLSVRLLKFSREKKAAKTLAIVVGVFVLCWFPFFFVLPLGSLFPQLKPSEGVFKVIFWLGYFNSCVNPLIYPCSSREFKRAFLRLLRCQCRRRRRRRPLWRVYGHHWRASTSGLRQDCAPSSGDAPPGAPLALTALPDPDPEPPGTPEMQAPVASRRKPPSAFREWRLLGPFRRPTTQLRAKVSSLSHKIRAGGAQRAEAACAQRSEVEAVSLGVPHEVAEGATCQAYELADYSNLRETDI

[2] = target: T2, Alpha-1A adrenergic receptor (Rattus norvegicus) (UniProt P43140); experiment: Antagonist activity at alpha1A adrenoceptor in Wistar rat vas deferans assessed as noradrenaline-induced contractions after 30 mins
T2 sequence (whole entry): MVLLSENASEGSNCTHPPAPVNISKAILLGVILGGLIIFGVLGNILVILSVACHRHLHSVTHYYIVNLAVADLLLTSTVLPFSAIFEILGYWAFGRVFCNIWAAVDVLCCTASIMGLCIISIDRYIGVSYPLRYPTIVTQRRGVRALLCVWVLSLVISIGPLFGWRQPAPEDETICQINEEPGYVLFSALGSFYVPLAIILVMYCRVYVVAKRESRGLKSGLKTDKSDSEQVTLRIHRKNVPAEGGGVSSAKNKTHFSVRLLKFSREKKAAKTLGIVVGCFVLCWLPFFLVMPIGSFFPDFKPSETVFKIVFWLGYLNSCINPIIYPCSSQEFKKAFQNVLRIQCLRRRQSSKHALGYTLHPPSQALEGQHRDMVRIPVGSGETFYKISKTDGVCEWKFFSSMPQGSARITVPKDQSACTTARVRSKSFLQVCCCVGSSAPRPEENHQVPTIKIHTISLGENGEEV

Rattus norvegicus [3] = species: Rattus norvegicus; experiment: Selectivity ratio of pA2 for alpha1D adrenoceptor in Wistar rat thoracic aorta to pKb for alpha1B adrenoceptor in Wistar rat spleen
Rattus norvegicus [4] = species: Rattus norvegicus; experiment: Selectivity ratio of pA2 for alpha1D adrenoceptor in Wistar rat thoracic aorta to pKb for alpha1A adrenoceptor in Wistar rat vas deferans
CHO [5] = experiment: Selectivity index, ratio of pKi for human recombinant alpha1D adrenoceptor to pKi for human recombinant alpha1A adrenoceptor expressed in CHO cell membrane; format: cell-based
[6] = target: T3, Alpha-1D adrenergic receptor (Rattus norvegicus, UniProt P23944); experiment: Antagonist activity at alpha1D adrenoceptor in Wistar rat thoracic aorta assessed as noradrenaline-induced contractions after 30 mins; format: tissue-based; conditions: read-out: pA2 (converted)
T3 sequence (P23944 whole entry): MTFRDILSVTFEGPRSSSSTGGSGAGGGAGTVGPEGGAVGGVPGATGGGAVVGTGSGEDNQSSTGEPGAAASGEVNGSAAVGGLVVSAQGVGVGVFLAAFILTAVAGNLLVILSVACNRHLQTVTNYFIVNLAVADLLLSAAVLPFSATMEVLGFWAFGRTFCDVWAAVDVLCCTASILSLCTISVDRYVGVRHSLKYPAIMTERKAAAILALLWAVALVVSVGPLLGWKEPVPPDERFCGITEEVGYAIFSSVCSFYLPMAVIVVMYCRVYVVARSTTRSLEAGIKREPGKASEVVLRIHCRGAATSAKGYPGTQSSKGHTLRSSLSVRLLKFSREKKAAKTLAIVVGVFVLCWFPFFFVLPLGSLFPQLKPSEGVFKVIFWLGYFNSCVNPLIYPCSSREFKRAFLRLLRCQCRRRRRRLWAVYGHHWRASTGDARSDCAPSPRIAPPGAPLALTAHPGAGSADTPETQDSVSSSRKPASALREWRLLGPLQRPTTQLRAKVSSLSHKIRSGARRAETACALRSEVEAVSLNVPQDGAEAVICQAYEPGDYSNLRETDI

CHO [7] = experiment: Selectivity index, ratio of pKi for human recombinant 5-HT1A receptor expressed in HeLa cell membrane to pKi for human recombinant alpha1D adrenoceptor expressed in CHO cell membrane; format: cell-based
CHO [8] = experiment: Selectivity index, ratio of pKi for human recombinant alpha1D adrenoceptor to pKi for human recombinant alpha1B adrenoceptor expressed in CHO cell membrane; format: cell-based
CHO [9] = experiment: Selectivity index, ratio of pKi for human recombinant alpha1A adrenoceptor to pKi for human recombinant alpha1B adrenoceptor expressed in CHO cell membrane; format: cell-based
Rattus norvegicus [10] = species: Rattus norvegicus; experiment: Selectivity ratio of pKb for alpha1A adrenoceptor in Wistar rat vas deferans to pKb for alpha1B adrenoceptor in Wistar rat spleen
[11] = target: T4, Alpha-1B adrenergic receptor (Rattus norvegicus) (UniProt P15823); experiment: Antagonist activity at alpha1B adrenoceptor in Wistar rat spleen assessed as phenylephrine-induced contractions after 30 mins
T4 sequence (whole entry): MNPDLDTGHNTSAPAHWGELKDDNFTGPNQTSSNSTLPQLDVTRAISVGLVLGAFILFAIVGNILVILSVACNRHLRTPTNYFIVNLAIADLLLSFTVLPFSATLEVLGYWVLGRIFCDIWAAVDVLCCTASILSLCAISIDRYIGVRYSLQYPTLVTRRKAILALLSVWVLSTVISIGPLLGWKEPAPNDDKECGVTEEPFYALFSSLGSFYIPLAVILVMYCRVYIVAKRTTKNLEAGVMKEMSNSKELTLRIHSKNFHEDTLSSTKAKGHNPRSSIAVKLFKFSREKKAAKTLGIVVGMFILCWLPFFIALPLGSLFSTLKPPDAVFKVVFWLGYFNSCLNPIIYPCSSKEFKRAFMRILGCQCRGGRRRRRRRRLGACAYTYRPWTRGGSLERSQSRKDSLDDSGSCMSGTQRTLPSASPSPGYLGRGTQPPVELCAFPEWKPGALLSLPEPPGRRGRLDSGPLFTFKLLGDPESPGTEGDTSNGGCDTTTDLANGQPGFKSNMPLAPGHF

[12] = target: T5, 5-hydroxytryptamine receptor 1A (Homo sapiens) (UniProt P08908); experiment: Agonist activity at human recombinant 5-HT1A receptor expressed in HeLa cell membrane after 20 mins by [35S]GTPgammaS binding assay; format: functional, cell membranes
T5 sequence (whole entry): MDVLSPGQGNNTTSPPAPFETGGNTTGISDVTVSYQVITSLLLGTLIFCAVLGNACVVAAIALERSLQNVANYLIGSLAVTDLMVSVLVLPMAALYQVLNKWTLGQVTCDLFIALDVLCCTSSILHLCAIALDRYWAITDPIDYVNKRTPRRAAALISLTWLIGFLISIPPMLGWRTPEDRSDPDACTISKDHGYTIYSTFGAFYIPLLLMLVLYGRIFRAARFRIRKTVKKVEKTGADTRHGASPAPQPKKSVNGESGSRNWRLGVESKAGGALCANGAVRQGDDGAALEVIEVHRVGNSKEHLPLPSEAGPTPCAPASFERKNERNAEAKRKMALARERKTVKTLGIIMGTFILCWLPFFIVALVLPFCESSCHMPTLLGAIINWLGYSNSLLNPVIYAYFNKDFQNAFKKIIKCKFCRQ

[13] = target: T6, Alpha-1B adrenergic receptor (Homo sapiens, UniProt P35368); experiment: Displacement of [3H]prazosin from human recombinant alpha1B adrenoceptor expressed in CHO cell membrane after 30 mins by liquid scintillation counting; format: cell membranes
T6 sequence (P35368 whole entry): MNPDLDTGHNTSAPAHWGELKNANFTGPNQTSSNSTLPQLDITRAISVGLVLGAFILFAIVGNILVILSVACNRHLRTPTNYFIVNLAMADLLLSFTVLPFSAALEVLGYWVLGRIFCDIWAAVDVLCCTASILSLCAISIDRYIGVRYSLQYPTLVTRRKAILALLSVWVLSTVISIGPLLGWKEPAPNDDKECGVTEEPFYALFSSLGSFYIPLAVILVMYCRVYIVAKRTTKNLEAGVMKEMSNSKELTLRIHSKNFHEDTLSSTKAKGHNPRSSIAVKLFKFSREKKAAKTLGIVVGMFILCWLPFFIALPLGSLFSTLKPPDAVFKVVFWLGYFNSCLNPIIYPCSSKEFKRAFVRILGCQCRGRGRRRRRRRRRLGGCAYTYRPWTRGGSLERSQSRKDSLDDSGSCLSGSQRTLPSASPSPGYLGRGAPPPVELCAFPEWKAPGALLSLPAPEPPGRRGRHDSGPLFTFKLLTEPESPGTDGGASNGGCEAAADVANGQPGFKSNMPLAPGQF

[14] = target: T7, Alpha-1A adrenergic receptor (Homo sapiens, UniProt P35348); experiment: Displacement of [3H]prazosin from human recombinant alpha1A adrenoceptor expressed in CHO cell membrane after 30 mins by liquid scintillation counting; format: cell membranes
T7 sequence (P35348 whole entry): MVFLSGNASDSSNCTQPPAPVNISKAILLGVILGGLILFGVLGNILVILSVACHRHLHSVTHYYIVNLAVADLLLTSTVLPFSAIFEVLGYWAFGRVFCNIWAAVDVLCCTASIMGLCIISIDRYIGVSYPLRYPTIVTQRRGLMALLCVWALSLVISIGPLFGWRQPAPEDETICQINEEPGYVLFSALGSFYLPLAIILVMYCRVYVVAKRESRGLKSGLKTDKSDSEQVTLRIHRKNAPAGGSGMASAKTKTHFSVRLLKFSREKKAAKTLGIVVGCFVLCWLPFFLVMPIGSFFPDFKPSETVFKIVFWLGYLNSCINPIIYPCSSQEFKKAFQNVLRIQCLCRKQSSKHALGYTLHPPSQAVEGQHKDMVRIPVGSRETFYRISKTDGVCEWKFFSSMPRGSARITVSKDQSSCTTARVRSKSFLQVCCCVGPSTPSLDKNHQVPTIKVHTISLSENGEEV

[15] = target: T8, 5-hydroxytryptamine receptor 1A (Homo sapiens, UniProt P08908); experiment: Displacement of [3H]8-OH-DPAT from human recombinant 5-HT1A receptor expressed in HeLa cell membrane after 30 mins by liquid scintillation counting; format: cell membranes
T8 sequence (P08908 whole entry): T5 sequence (whole entry)

Row | Ki [1] [nM] | pKb [2] | Ratio (Rattus norvegicus [3]) | Ratio (Rattus norvegicus [4]) | Kb [6] [nM] | Ratio (Rattus norvegicus [10]) | pKb [11] | pD2 [12] | Ki [13] [nM] | Ki [14] [nM] | Ki [15] [nM] | Emax [12] [%] | Structure (SMILES) | Ratio pKi (CHO [5]) | Ratio pKi (CHO [7]) | Ratio pKi (CHO [8]) | Ratio pKi (CHO [9])
1 | 11.7 | 6.16 | 219 | 110 | 6.31 | 0.5 | 5.86 | 8.8 |  |  |  |  | c1ccc(OCCNCC2COC(c3ccccc3)(c3ccccc3)O2)cc1 (racemic) | 3 | 3 | 5 | 2
2 | 22.9 | 6.67 | 34 | 23 | 5.13 | 1 | 6.51 | 7.45 | 79.4 | 30.2 | 3.02 | 65.3 | c1ccc(OCCNC[C@@H]2COC(c3ccccc3)(c3ccccc3)O2)cc1 | 1 | 8 | 3 | 3
3 | 14.5 | 6.2 | 30 | 26 | 24.5 | 1 | 6.14 | 6.85 | 115 | 126 | 3.8 | 50 | c1ccc(OCCNC[C@H]2COC(c3ccccc3)(c3ccccc3)O2)cc1 | 9 | 4 | 8 | 1
